US4861769A, “Cephem compounds” (Fujisawa Pharmaceutical Co., Ltd., priority 1985, dated 1989)
Converted amounts (≈) assume the structure as drawn.

Columns and labels:
Format in all cases: cell-based
E. coli 31 = experiment: In vitro antibacterial activity, two-fold agar-plate dilution method (MIC), E. coli 31; conditions: Escherichia coli, heart infusion agar, 37° C., 20 hours, read-out: MIC (minimal inhibitory concentration)
Experimental: (§1) Now in order to show the utility of the object compounds [I], the test data on MIC (minimal inhibitory concentration) of representative compounds [I] of this invention are shown in the following.
(§2) In vitro antibacterial activity was determined by the two-fold agar-plate dilution method as described below.
(§3) One loopful of an overnight culture of each test strain in Trypticase-soy broth (10^6 viable cells per ml) was streaked on heart infusion agar (HI-agar) containing graded concentrations of representative test compound, and the minimal inhibitory concentration (MIC) was expressed in terms of μg/ml after incubation at 37° C. for 20 hours.

E. coli 58 = experiment: In vitro antibacterial activity, two-fold agar-plate dilution method (MIC), E. coli 58; conditions: Escherichia coli, heart infusion agar, 37° C., 20 hours, read-out: MIC (minimal inhibitory concentration)
Experimental: as §1, §2, §3

P. mirabilis 1 = experiment: In vitro antibacterial activity, two-fold agar-plate dilution method (MIC), P. mirabilis 1; conditions: Proteus mirabilis, heart infusion agar, 37° C., 20 hours, read-out: MIC (minimal inhibitory concentration)
Experimental: as §1, §2, §3

P. vulgaris IAM 1025 = experiment: In vitro antibacterial activity, two-fold agar-plate dilution method (MIC), P. vulgaris IAM 1025; conditions: Proteus vulgaris, IAM1025, heart infusion agar, 37° C., 20 hours, read-out: MIC (minimal inhibitory concentration)
Experimental: as §1, §2, §3

S. aureus 209P JC-1 = experiment: In vitro antibacterial activity, two-fold agar-plate dilution method (MIC), S. aureus 209P JC-1; conditions: Staphylococcus aureus, heart infusion agar, 37° C., 20 hours, read-out: MIC (minimal inhibitory concentration)
Experimental: as §1, §2, §3

| SMILES | MIC (E. coli 31) | MIC (E. coli 58) | MIC (P. mirabilis 1) | MIC (P. vulgaris IAM 1025) | MIC (S. aureus 209P JC-1) |
| --- | --- | --- | --- | --- | --- |
| CC(=O)OCC1=C(C(=O)O)N2C(=O)[C@@H](NC(=O)/C(=N\OC3CC3)c3csc(N)n3)[C@H]2SC1 [(9)] | 0.05 µg/mL (≈ 0.104 µM) | 0.05 µg/mL (≈ 0.104 µM) | 0.05 µg/mL (≈ 0.104 µM) | ≤ 0.025 µg/mL | 1.56 µg/mL (≈ 3.24 µM) |
| Nc1nc(/C(=N/OC2CC2)C(=O)N[C@@H]2C(=O)N3C(C(=O)O)=C(CSc4ncns4)CS[C@H]23)cs1 [(5)] | ≤ 0.025 µg/mL | ≤ 0.025 µg/mL | 0.05 µg/mL (≈ 0.0927 µM) | ≤ 0.025 µg/mL | 0.39 µg/mL (≈ 0.723 µM) |
| Nc1nc(/C(=N/OC2CC2)C(=O)N[C@@H]2C(=O)N3C(C(=O)O)=C(CSc4nncs4)CS[C@H]23)cs1 [(2)] | ≤ 0.025 µg/mL | ≤ 0.025 µg/mL | 0.05 µg/mL (≈ 0.0927 µM) | ≤ 0.025 µg/mL | 0.39 µg/mL (≈ 0.723 µM) |
| Nc1nc(/C(=N/OC2CC2)C(=O)N[C@@H]2C(=O)N3C(C(=O)O)=C(CSc4ccc5nnnn5n4)CS[C@H]23)cs1 [(4)] | ≤ 0.025 µg/mL | 0.05 µg/mL (≈ 0.087 µM) | 0.1 µg/mL (≈ 0.174 µM) | 0.05 µg/mL (≈ 0.087 µM) | 0.39 µg/mL (≈ 0.679 µM) |
| Cn1c(SCC2=C(C(=O)O)N3C(=O)[C@@H](NC(=O)/C(=N\OC4CC4)c4csc(N)n4)[C@H]3SC2)n[nH]c(=O)c1=O [(3)] | ≤ 0.025 µg/mL | ≤ 0.025 µg/mL | 0.05 µg/mL (≈ 0.0861 µM) | 0.05 µg/mL (≈ 0.0861 µM) | 0.39 µg/mL (≈ 0.672 µM) |
| Nc1nc(/C(=N/OC2CC2Cl)C(=O)N[C@@H]2C(=O)N3C(C(=O)O)=C(CSc4nncs4)CS[C@H]23)cs1 (single isomer, unassigned) [(7)] | ≤ 0.025 µg/mL | 0.05 µg/mL (≈ 0.0871 µM) | 0.2 µg/mL (≈ 0.348 µM) | ≤ 0.025 µg/mL | 0.39 µg/mL (≈ 0.679 µM) |
| Nc1nc(/C(=N/OC2CC2)C(=O)N[C@@H]2C(=O)N3C(C(=O)O)=C(CSc4cnns4)CS[C@H]23)cs1 [(8)] | ≤ 0.025 µg/mL | 0.05 µg/mL (≈ 0.0927 µM) | 0.1 µg/mL (≈ 0.185 µM) | 0.1 µg/mL (≈ 0.185 µM) | 0.78 µg/mL (≈ 1.45 µM) |

Next, values leading:

| MIC (E. coli 31) | MIC (E. coli 58) | MIC (P. mirabilis 1) | MIC (P. vulgaris IAM 1025) | MIC (S. aureus 209P JC-1) | SMILES |
| --- | --- | --- | --- | --- | --- |
| ≤ 0.025 µg/mL | 0.05 µg/mL (≈ 0.0999 µM) | 0.1 µg/mL (≈ 0.2 µM) | 0.05 µg/mL (≈ 0.0999 µM) | 0.39 µg/mL (≈ 0.779 µM) | Nc1nc(/C(=N/OC2CC2)C(=O)N[C@@H]2C(=O)N3C(C(=O)[O-])=C(C[n+]4ccccc4)CS[C@H]23)cs1 [(1)] |
| < 0.025 µg/mL | 0.2 µg/mL (≈ 0.399 µM) | 0.2 µg/mL (≈ 0.399 µM) | 0.1 µg/mL (≈ 0.199 µM) | 0.78 µg/mL (≈ 1.56 µM) | Nc1nc(/C(=N/OC2CC2)C(=O)N[C@@H]2C(=O)N3C(C(=O)[O-])=C(C[n+]4ccccc4)CS[C@H]23)ns1 [(10)] |
| 0.05 µg/mL (≈ 0.0878 µM) | 0.2 µg/mL (≈ 0.351 µM) | 1.56 µg/mL (≈ 2.74 µM) | 0.05 µg/mL (≈ 0.0878 µM) | 0.39 µg/mL (≈ 0.685 µM) | Nc1nc(/C(=N/OC2CC2(Cl)Cl)C(=O)N[C@@H]2C(=O)N3C(C(=O)[O-])=C(C[n+]4ccccc4)CS[C@H]23)cs1 (some centres unmarked) [(6)] |
